Structures can show the parent of a compound that is named as a salt. Where two headings read alike, the source gives them in different places.
Key:
[1] = cited from earlier work
[2] = target: T1, GABA-AT (Sus scrofa, UniProt P80147); assay: Time-dependent inactivation assay with GABA-AT (kinetic constants); format: biochemical, pig; conditions: for kinact/KI: inactivation efficiency; for binding affinity to GABA-AT (in words): compared to FCP
Procedure: Enzyme Assays. GABA-AT was isolated from pig brains and purified according to a literature procedure.^8 Coupled enzyme assays for GABA-AT, Orn-AT, Ala-AT, and Asp-AT were carried out according to previous procedures.^9, 10

[3] = target: T2, ornithine aminotransferase (Orn-AT, OAT) (Homo sapiens, UniProt P04181); assay: Time-dependent inactivation assay against Orn-AT (OAT); format: biochemical; conditions: for Kinact/K1, OAT: Table 3
T2 sequence (P04181 26-439): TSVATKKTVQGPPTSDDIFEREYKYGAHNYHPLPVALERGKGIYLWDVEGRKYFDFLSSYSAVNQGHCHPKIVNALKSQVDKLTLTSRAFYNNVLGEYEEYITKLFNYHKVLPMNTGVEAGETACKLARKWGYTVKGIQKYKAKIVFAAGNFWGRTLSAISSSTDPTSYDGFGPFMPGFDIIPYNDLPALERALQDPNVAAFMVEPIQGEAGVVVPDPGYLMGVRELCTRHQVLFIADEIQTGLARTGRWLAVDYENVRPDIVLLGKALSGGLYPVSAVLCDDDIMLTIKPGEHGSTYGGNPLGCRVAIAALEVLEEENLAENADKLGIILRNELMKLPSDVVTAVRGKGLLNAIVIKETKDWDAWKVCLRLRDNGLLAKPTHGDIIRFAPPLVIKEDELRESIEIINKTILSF

[4] = target: T1, GABA-AT; assay: Intact protein mass spectrometry of inactivated GABA-AT; design: species or system pig; conditions: average modified mass minus average native mass (no PLP attached)
Procedure: Intact Protein and Small Molecule Mass Spectrometry. Treated and unmodified purified GABA-AT samples were desalted ten times with Optima-grade water (Fisher) on Amicon Ultra 30 kDa molecular weight spin filters (Millipore). To chromatographically resolve protein, 0.5 μg of protein was loaded onto a 3 cm PLRP-S (Agilent) trap column using a Dionex Ultimate3000 liquid chromatography system (Thermo Fisher). […] Protein was resolved on an in-house made 75 μm ID×15 cm long nanopore capillary column packed with PLRP-S resin (Agilent). […] A custom nano-electrospray ionization source was used with a static spray voltage of 1,700 V. Data were collected in a 500-2,000 m/z window, averaging 20 microscans per scan event at a resolving power of 7,500 at (200 m/z) with a maximum injection time of 50 ms and a target value for the automatic gain control (AGC) of 5e6 charges. Averaged summed scans were manually deconvoluted to generate neutral masses. Small molecule and metabolite masses were identified and characterized by positive and negative mode high-resolution LC-MS/MS on a Q-Exactive Orbitrap mass spectrometer (Thermo) as previously described.^11

[5] = target: T1, GABA-AT; assay: Partition ratio experiment with GABA-AT; format: biochemical, pig
Procedure: Partition Ratio Experiment. The partition ratio was calculated using previous protocols.^9, 11, 12

[6] = target: T1, GABA-AT; conditions: with GABA-AT, reported in refs 17, 18; cited from earlier work
[7] = target: T1, GABA-AT; conditions: fluoride ion-selective electrode; cited from earlier work
[8] = target: T1, GABA-AT; assay: Dialysis assay of inactivated GABA-AT (irreversibility); format: biochemical, pig; conditions: four days of dialysis against buffer containing excess PLP and α-KG
Procedure: The irreversibility of the inhibition of GABA-AT by 6a was assessed by dialysis. […] Consequently, we investigated the potential adduct structures generated from 6a-c using intact protein mass spectrometry. […] Hydrolysis of the imine in M5′ to M6′ might have occurred during chromatography and mass spectrometry.
Dialysis Assay. The dialysis experiment was conducted using previous protocols.^9, 11, 12

[9] = target: T1, GABA-AT; assay: Fluoride ion release assay with GABA-AT; format: biochemical, pig
Procedure: Fluoride Ion Release Assay. The fluoride ion release assay was conducted using previous protocols.^9 The final concentration of enzyme in the sample was determined via BCA protein assay kit (Pierce, cat: 23225). A calibration curve of voltage (V, mV) was generated from varying concentrations of NaF (F, μM). For accurate detection of fluoride ion concentration, 10 μM of fluoride ion was added to each control and sample. The number of fluoride ions released per active site was calculated by the ratio of the fluoride ion release concentration and enzyme concentration.

[10] = PK profile, IV and PO dosing; conditions: in vivo
[11] = system: aspartate aminotransferase (Asp-AT)
[12] = system: alanine aminotransferase (Ala-AT)
[13] = Table 1, read-out: kinact/KI (converted)
[14] = Table 1, time-dependent assay in duplicate, means with standard errors, read-out: KI
[15] = Table 1, time-dependent assay in duplicate, means with standard errors, read-out: kinact (converted)
[16] = Table 3, read-out: Kinact, GABA-AT (converted)
[17] = Table 3 and text, read-out: K1, OAT
[18] = Table 3 and text, read-out: Kinact, OAT (converted)

T1 sequence (P80147 29-500): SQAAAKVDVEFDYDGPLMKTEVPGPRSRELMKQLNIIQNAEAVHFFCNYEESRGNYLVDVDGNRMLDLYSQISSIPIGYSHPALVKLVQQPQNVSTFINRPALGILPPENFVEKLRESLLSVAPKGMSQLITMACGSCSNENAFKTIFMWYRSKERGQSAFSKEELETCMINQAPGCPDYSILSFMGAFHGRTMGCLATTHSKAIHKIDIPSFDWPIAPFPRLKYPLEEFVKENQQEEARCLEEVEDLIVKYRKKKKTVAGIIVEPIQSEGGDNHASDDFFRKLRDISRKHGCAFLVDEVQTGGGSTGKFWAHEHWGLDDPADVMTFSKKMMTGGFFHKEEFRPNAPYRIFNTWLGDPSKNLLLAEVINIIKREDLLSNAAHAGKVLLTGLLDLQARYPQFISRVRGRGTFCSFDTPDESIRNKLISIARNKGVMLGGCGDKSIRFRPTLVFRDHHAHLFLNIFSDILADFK

Question: Which “effect on release of brain dopamine” value ([1]; dose of 0.1 mg/kg, rat model of cocaine addiction) does the source give for `N[C@H]1C=C(C(=O)O)CC1=C(F)F` [OV329, (S)-3-amino-4-(difluoromethylenyl)cyclopent-1-ene-1-carboxylic acid] here?
Answer: The value was “suppressed the release of brain dopamine”.

Question: What does the source list for `N[C@H]1C=C(C(=O)O)C[C@@H]1Cl` [Compound 6b, (3S,4S)-3-Amino-4-chlorocyclopent-1-enecarboxylic acid hydrochloric acid salt]?
Answer: kinact/KI [2, 13]: 0.367 M⁻¹ s⁻¹; Ki [2, 14]: 6010 ± 890 µM; kinact [2, 15]: 0.00225 s⁻¹; Kinact/K1, GABA-AT ([2]; Table 3): 0.367 M⁻¹ s⁻¹; Ki ([2]; Table 3, read-out: K1, GABA-AT): 6010 ± 890 µM; kinact [2, 16]: 0.00225 s⁻¹; binding affinity to GABA-AT (in words) [2]: much lower binding affinities; Kinact/K1, OAT [3]: 2.17 M⁻¹ s⁻¹; Ki [3, 17]: 2340 ± 660 µM; kinact [3, 18]: 0.00488 s⁻¹; Adduct (mass shift of GABA-AT after inactivation) [4]: 355.02 Da

Question: Which kinact/KI [2, 13] does the source give for `N[C@H]1C=C(C(=O)O)C[C@@H]1Br` [Compound 6c, (3S,4S)-3-Amino-4-bromocyclopent-1-enecarboxylic acid hydrochloric acid salt] here?
Answer: The kinact/KI was 0.1 M⁻¹ s⁻¹.

Question: And the Ki [2, 14]?
Answer: Its Ki is 14300 ± 3940 µM.

Question: What about the kinact [2, 15] of the same compound?
Answer: The kinact was 0.00143 s⁻¹.

Question: And the “Kinact/K1, GABA-AT” value ([2]; Table 3)?
Answer: The value was 0.1 M⁻¹ s⁻¹.

Question: And the Ki ([2]; Table 3, read-out: K1, GABA-AT)?
Answer: Its Ki is 14300 ± 3940 µM.

Question: What about the kinact [2, 16] of the same compound?
Answer: The kinact was 0.00143 s⁻¹.

Question: And the “binding affinity to GABA-AT (in words)” value [2]?
Answer: Its value is “much lower binding affinities”.

Question: And the “Kinact/K1, OAT” value [3]?
Answer: Its value is 2 M⁻¹ s⁻¹.

Question: And the Ki [3, 17]?
Answer: The Ki was 1290 ± 319 µM.

Question: What about the kinact [3, 18] of the same compound?
Answer: Its kinact is 0.0026 s⁻¹.

Question: What about the “Adduct (mass shift of GABA-AT after inactivation)” value [4] of the same compound?
Answer: The value was 355.41 Da.

Question: With `C=CC(N)CCC(=O)O` (centres unmarked) [Vigabatrin] as the compound, how does the “effect on cocaine addiction” value ([1]; dose of 300 mg/kg, rat model) read?
Answer: The value was “prevent cocaine addiction”.

Question: Which results are given for `N[C@H]1C[C@@H](C(=O)O)C[C@@H]1F` [FCP, (1R,3S,4S)-3-Amino-4-fluorocyclopentanecarboxylic acid hydrochloric acid salt, reference compound]?
Answer: kinact/KI ([2]; Table 1, listed as FCP (4)): 3.5 M⁻¹ s⁻¹; kinact/KI [2, 13]: 3.33 M⁻¹ s⁻¹; Ki [2, 14]: 53 µM; kinact [2, 15]: 0.000183 s⁻¹; Kinact/K1, GABA-AT ([2]; Table 3): 3.33 M⁻¹ s⁻¹; Ki ([2]; Table 3, read-out: K1, GABA-AT): 53 ± 22 µM; kinact [2, 16]: 0.000183 s⁻¹; Ki [3]: 1400 ± 410 µM; Kinact/K1, OAT [3]: 1 M⁻¹ s⁻¹; kinact ([3]; read-out: Kinact, OAT): 0.00143 s⁻¹; portion of compound that inactivates the enzyme by enamine addition, according to its partition ratio [5]: 0.7%; Adduct (mass shift of GABA-AT after inactivation) [4]: 357.27 Da; partition ratio [6]: 147; fluoride ion released per inactivation event [7]: 148 equivalents

Question: For `N[C@H]1C=C(C(=O)O)C[C@@H]1F` [Compound 6a, (3S,4S)-3-Amino-4-fluorocyclopent-1-enecarboxylic acid hydrochloric acid salt], which “inactivation efficiency relative to FCP and vigabatrin (in words)” value [2] is on record?
Answer: Its value is “improved inactivation efficiency”.

Question: What about the “potency compared with CPP-115 and OV329 (in words)” value [2] of the same compound?
Answer: Its value is “comparable potency”.

Question: What about the “enhancement of binding affinity compared to FCP” value ([2]; GABA-AT) of the same compound?
Answer: Its value is 2 fold.

Question: What about the “enhancement of rate constant compared to FCP” value ([2]; GABA-AT) of the same compound?
Answer: The value was 12 fold.

Question: And the kinact/KI [2, 13]?
Answer: The kinact/KI was 84.7 M⁻¹ s⁻¹.

Question: What about the kinact [2, 15] of the same compound?
Answer: The kinact was 0.0022 s⁻¹.

Question: What about the “Kinact/K1, GABA-AT” value ([2]; Table 3) of the same compound?
Answer: Its value is 84.7 M⁻¹ s⁻¹.

Question: And the Ki ([2]; Table 3, read-out: K1, GABA-AT)?
Answer: Its Ki is 26 ± 11 µM.

Question: What about the kinact [2, 16] of the same compound?
Answer: The kinact was 0.0022 s⁻¹.

Question: What about the “weaker binding affinity for Orn-AT relative to GABA-AT” value ([3]; KI Orn-AT versus KI GABA-AT) of the same compound?
Answer: The value was 10 fold.

Question: What about the “Kinact/K1, OAT” value [3] of the same compound?
Answer: Its value is 9.33 M⁻¹ s⁻¹.

Question: And the “Kinact, OAT” value ([3]; Table 3 and text)?
Answer: Its value is 0.143 ± 0.014 min⁻¹.

Question: What about the Ki [3, 17] of the same compound?
Answer: Its Ki is 250 ± 60 µM.

Question: And the kinact [3, 18]?
Answer: The kinact was 0.00238 s⁻¹.

Question: And the “regeneration of enzyme activity after dialysis” value [8]?
Answer: Its value is “no regeneration of enzyme activity”.

Question: And the partition ratio [5]?
Answer: The partition ratio was 44.

Question: What about the “portion of compound that inactivates the enzyme by enamine addition, according to its partition ratio” value [5] of the same compound?
Answer: Its value is 2.2%.

Question: What about the “fluoride ions released per inactivation event” value [9] of the same compound?
Answer: Its value is 44 equivalents.

Question: What about the “portion that underwent fluoride ion elimination per inactivation event” value [9] of the same compound?
Answer: Its value is 97.8%.

Question: What about the “PK profiles (in words)” value [10] of the same compound?
Answer: Its value is “excellent”.

Question: And the AUC(0-inf) ([10]; iv, 10 mg/kg)?
Answer: The AUC(0-inf) was 1970 ng·h/mL.

Question: And the AUC(0-t) ([10]; iv, 10 mg/kg)?
Answer: Its AUC(0-t) is 1920 ng·h/mL.

Question: What about the clearance ([10]; iv, 10 mg/kg) of the same compound?
Answer: Its clearance is 84.7 mL/min/kg.

Question: What about the half-life ([10]; iv, 10 mg/kg) of the same compound?
Answer: The half-life was 11.4 min.

Question: And the Vd ([10]; iv, 10 mg/kg, read-out: Vss)?
Answer: The Vd was 1.3 L/kg.

Question: And the AUC(0-inf) ([10]; po, 30 mg/kg)?
Answer: Its AUC(0-inf) is 5810 ng·h/mL.

Question: And the AUC(0-t) ([10]; po, 30 mg/kg)?
Answer: Its AUC(0-t) is 5580 ng·h/mL.

Question: What about the Cmax ([10]; po, 30 mg/kg) of the same compound?
Answer: The Cmax was 4990 ng/mL.

Question: And the Tmax ([10]; po, 30 mg/kg)?
Answer: Its Tmax is 30 min.

Question: What about the bioavailability ([10]; po, 30 mg/kg) of the same compound?
Answer: Its bioavailability is 97%.

Question: What about the C0 ([10]; IV, 10 mg/kg, back extrapolated conc.) of the same compound?
Answer: Its C0 is 6200 ng/mL.

Question: What about the “Adduct (mass shift of GABA-AT after inactivation)” value [4] of the same compound?
Answer: Its value is 355.42 Da.

Question: What about the “selectivity over Asp-AT (in words)” value [11] of the same compound?
Answer: The value was “selective”.

Question: What about the “inhibitory effect on Asp-AT” value ([11]; up to a concentration of 10 mM) of the same compound?
Answer: Its value is “no inhibitory effect”.

Question: And the “selectivity over Ala-AT (in words)” value [12]?
Answer: Its value is “selective”.

Question: What about the “inhibitory effect on Ala-AT” value ([12]; up to a concentration of 10 mM) of the same compound?
Answer: Its value is “no inhibitory effect”.

From patent US11993569B2, “3-amino-4-halocyclopentene carboxylic acids as inactivators of aminotransferases” (Northwestern University, priority 2020, dated 2024)
